Results as given in ChEMBL document CHEMBL3091302, “Kadcotriones A-C: tricyclic triterpenoids from Kadsura coccinea” (J Nat Prod, 2013).

Key:
SMMC-7721 = experiment: Cytotoxicity against human SMMC7721 cells after 48 hrs by MTT assay; type: functional, cell-based; conditions: SMMC-7721, 48 h
SW480 = experiment: Cytotoxicity against human SW480 cells after 48 hrs by MTT assay; type: functional, cell-based; conditions: SW480, 48 h
MCF7 = experiment: Cytotoxicity against human MCF7 cells after 48 hrs by MTT assay; type: functional, cell-based; conditions: MCF7, 48 h
A549 = experiment: Cytotoxicity against human A549 cells after 48 hrs by MTT assay; type: functional, cell-based; conditions: A549, 48 h
[1] = test system: Human immunodeficiency virus 1; experiment: Antiviral activity against HIV1 3B infected in human C8166 cells assessed as inhibition of viral-induced cytopathogenicity by syncytium formation assay; type: functional, organism-based; conditions: Human immunodeficiency virus 1, 3B

C/C(=C\CC[C@@H](C)[C@H]1CC[C@@]2(C)[C@@H]3CC[C@H]4C(C)(C)C(=O)CC[C@]4(C)C3=C[C@@H](O)[C@]12C)C(=O)O
IC50 (SMMC-7721): > 40 µM
IC50 (SW480): > 40 µM
IC50 (MCF7): > 40 µM
IC50 (A549): > 40 µM
EC50 [1]: 54.8 µM

C/C(=C\CC[C@@H](C)C(=O)CC[C@]1(C)C(=O)C=C2[C@H]1CC[C@H]1C(C)(C)C(=O)CC[C@]21C)C(=O)O
IC50 (SMMC-7721): > 40 µM
IC50 (SW480): > 40 µM
IC50 (MCF7): > 40 µM
IC50 (A549): > 40 µM
EC50 [1]: 30.3 µM

CC1=C[C@]2(O)[C@@H](CC[C@H]3C(C)(C)C(=O)CC[C@@]32C)[C@@](C)(CCC(=O)[C@H](C)CC/C=C(\C)C(=O)O)C1=O
IC50 (SMMC-7721): > 40 µM
IC50 (SW480): > 40 µM
IC50 (MCF7): > 40 µM
IC50 (A549): > 40 µM

Cc1cn([C@H]2C[C@H](N=[N+]=[N-])[C@@H](CO)O2)c(=O)[nH]c1=O [ZIDOVUDINE]
EC50 [1]: 0.02 µM
